“And” between values parts separate entries of the source, which are not always exact repeats. Equal values may be shown once. ± gives the expanded uncertainty stated by the source.
Assay: molar heat capacity at saturation pressure
Settings: Crystal 3, Small (less than 1 g) adiabatic calorimetry

ON=C1CCCCC1 [cyclohexanone oxime]
Settings	molar heat capacity
4.9 K	0.339 ± 0.021 J/K/mol
5.136 K	0.3967 ± 0.022 J/K/mol
5.378 K	0.4649 ± 0.023 J/K/mol
5.624 K	0.5419 ± 0.025 J/K/mol
5.878 K	0.6278 ± 0.026 J/K/mol
6.165 K	0.7333 ± 0.028 J/K/mol
6.485 K	0.8621 ± 0.031 J/K/mol
6.812 K	1.006 ± 0.034 J/K/mol
7.147 K	1.167 ± 0.038 J/K/mol
7.488 K	1.338 ± 0.042 J/K/mol
7.836 K	1.53 ± 0.046 J/K/mol
8.187 K	1.735 ± 0.051 J/K/mol
8.542 K	1.956 ± 0.055 J/K/mol
8.902 K	2.19 ± 0.061 J/K/mol
9.268 K	2.438 ± 0.066 J/K/mol
9.636 K	2.708 ± 0.072 J/K/mol
10 K	2.981 ± 0.059 J/K/mol
10.48 K	3.361 ± 0.064 J/K/mol
11.06 K	3.83 ± 0.07 J/K/mol
11.64 K	4.325 ± 0.077 J/K/mol
12.23 K	4.854 ± 0.084 J/K/mol
12.83 K	5.408 ± 0.091 J/K/mol
13.43 K	5.992 ± 0.099 J/K/mol
14.03 K	6.572 ± 0.11 J/K/mol
14.64 K	7.153 ± 0.11 J/K/mol
15.26 K	7.796 ± 0.12 J/K/mol
15.98 K	8.601 ± 0.13 J/K/mol
16.81 K	9.497 ± 0.14 J/K/mol
17.65 K	10.37 ± 0.15 J/K/mol
18.49 K	11.28 ± 0.16 J/K/mol
19.34 K	12.18 ± 0.17 J/K/mol
20.19 K	13.08 ± 0.14 J/K/mol
21.32 K	14.35 ± 0.14 J/K/mol
22.74 K	15.89 ± 0.15 J/K/mol
24.16 K	17.46 ± 0.16 J/K/mol
25.59 K	19 ± 0.17 J/K/mol
27.02 K	20.5 ± 0.17 J/K/mol
28.49 K	22 ± 0.17 J/K/mol
30.12 K	23.63 ± 0.18 J/K/mol
31.73 K	25.22 ± 0.19 J/K/mol
33.5 K	26.88 ± 0.2 J/K/mol
35.28 K	28.48 ± 0.21 J/K/mol
37.06 K	30.01 ± 0.21 J/K/mol
38.84 K	31.47 ± 0.22 J/K/mol
40.63 K	32.89 ± 0.23 J/K/mol
42.51 K	34.38 ± 0.24 J/K/mol
44.49 K	35.9 ± 0.24 J/K/mol
46.48 K	37.34 ± 0.25 J/K/mol
48.47 K	38.76 ± 0.26 J/K/mol
50.46 K	40.11 ± 0.27 J/K/mol
52.45 K	41.42 ± 0.27 J/K/mol
54.45 K	42.64 ± 0.28 J/K/mol
56.45 K	43.84 ± 0.29 J/K/mol
58.46 K	45.02 ± 0.29 J/K/mol
60.47 K	46.16 ± 0.3 J/K/mol
62.48 K	47.28 ± 0.3 J/K/mol
64.5 K	48.37 ± 0.31 J/K/mol
66.51 K	49.44 ± 0.32 J/K/mol
68.52 K	50.51 ± 0.32 J/K/mol
70.54 K	51.55 ± 0.33 J/K/mol
72.56 K	52.59 ± 0.33 J/K/mol
74.59 K	53.59 ± 0.34 J/K/mol
76.61 K	54.6 ± 0.34 J/K/mol
78.65 K	55.6 ± 0.35 J/K/mol
79.94 K	56.26 ± 0.35 J/K/mol
80.68 K	56.58 ± 0.35 J/K/mol
81.67 K	57.04 ± 0.35 J/K/mol
82.2 K	57.24 ± 0.36 J/K/mol
82.71 K	57.54 ± 0.36 J/K/mol
83.39 K	57.84 ± 0.36 J/K/mol
84.24 K	58.2 ± 0.36 J/K/mol
84.75 K	58.47 ± 0.36 J/K/mol
85.1 K	58.59 ± 0.36 J/K/mol
86.15 K	59.05 ± 0.37 J/K/mol
86.83 K	59.4 ± 0.37 J/K/mol
88.07 K	59.96 ± 0.37 J/K/mol
88.55 K	60.2 ± 0.37 J/K/mol
90 K	60.85 ± 0.4 J/K/mol
90.28 K	61.01 ± 0.4 J/K/mol
91.95 K	61.75 ± 0.4 J/K/mol
92.01 K	61.8 ± 0.4 J/K/mol
93.75 K	62.62 ± 0.41 J/K/mol
93.89 K	62.67 ± 0.41 J/K/mol
95.49 K	63.42 ± 0.41 J/K/mol
95.85 K	63.56 ± 0.41 J/K/mol
97.23 K	64.21 ± 0.41 J/K/mol
97.81 K	64.45 ± 0.41 J/K/mol
98.97 K	65.03 ± 0.42 J/K/mol
99.77 K	65.37 ± 0.42 J/K/mol
100.72 K	65.83 ± 0.42 J/K/mol
101.74 K	66.25 ± 0.42 J/K/mol
102.52 K	66.6 ± 0.42 J/K/mol
103.72 K	67.14 ± 0.43 J/K/mol
104.37 K	67.44 ± 0.43 J/K/mol
105.7 K	68.04 ± 0.43 J/K/mol
106.23 K	68.29 ± 0.43 J/K/mol
107.69 K	68.92 ± 0.43 J/K/mol
108.09 K	69.08 ± 0.44 J/K/mol
109.68 K	69.81 ± 0.44 J/K/mol
109.95 K	69.92 ± 0.44 J/K/mol
111.68 K	70.69 ± 0.44 J/K/mol
111.81 K	70.76 ± 0.44 J/K/mol
113.68 K	71.57 ± 0.45 J/K/mol and 71.56 ± 0.45 J/K/mol
115.55 K	72.37 ± 0.45 J/K/mol
115.69 K	72.45 ± 0.45 J/K/mol
117.41 K	73.2 ± 0.46 J/K/mol
117.7 K	73.35 ± 0.46 J/K/mol
119.29 K	74.03 ± 0.46 J/K/mol
119.71 K	74.22 ± 0.46 J/K/mol
121.16 K	74.85 ± 0.46 J/K/mol
121.72 K	75.08 ± 0.46 J/K/mol
123.03 K	75.63 ± 0.47 J/K/mol
123.73 K	75.98 ± 0.47 J/K/mol
124.91 K	76.46 ± 0.47 J/K/mol
125.75 K	76.86 ± 0.47 J/K/mol
126.79 K	77.29 ± 0.47 J/K/mol
127.76 K	77.72 ± 0.48 J/K/mol
128.67 K	78.11 ± 0.48 J/K/mol
129.79 K	78.6 ± 0.48 J/K/mol
130.55 K	78.91 ± 0.48 J/K/mol
131.81 K	79.49 ± 0.48 J/K/mol
132.43 K	79.75 ± 0.49 J/K/mol
133.83 K	80.38 ± 0.49 J/K/mol
134.31 K	80.58 ± 0.49 J/K/mol
135.86 K	81.28 ± 0.49 J/K/mol
136.2 K	81.42 ± 0.49 J/K/mol
137.88 K	82.16 ± 0.5 J/K/mol
138.09 K	82.25 ± 0.5 J/K/mol
139.9 K	83.05 ± 0.5 J/K/mol
139.98 K	83.08 ± 0.5 J/K/mol
141.87 K	83.93 ± 0.51 J/K/mol
141.92 K	83.95 ± 0.51 J/K/mol
143.76 K	84.77 ± 0.51 J/K/mol
143.95 K	84.85 ± 0.51 J/K/mol
145.65 K	85.62 ± 0.51 J/K/mol
145.97 K	85.73 ± 0.52 J/K/mol
147.54 K	86.49 ± 0.52 J/K/mol
148 K	86.67 ± 0.52 J/K/mol
149.44 K	87.35 ± 0.52 J/K/mol
150.03 K	87.59 ± 0.52 J/K/mol
151.34 K	88.17 ± 0.53 J/K/mol
152.05 K	88.52 ± 0.53 J/K/mol
153.24 K	89.05 ± 0.53 J/K/mol
154.08 K	89.42 ± 0.53 J/K/mol
155.13 K	89.89 ± 0.54 J/K/mol
156.1 K	90.34 ± 0.54 J/K/mol
157.03 K	90.77 ± 0.54 J/K/mol
158.12 K	91.27 ± 0.54 J/K/mol
158.93 K	91.65 ± 0.54 J/K/mol
160.13 K	92.24 ± 0.55 J/K/mol
160.83 K	92.53 ± 0.55 J/K/mol
162.15 K	93.18 ± 0.55 J/K/mol
162.73 K	93.45 ± 0.55 J/K/mol
164.16 K	94.14 ± 0.56 J/K/mol
164.63 K	94.35 ± 0.56 J/K/mol
166.17 K	95.08 ± 0.56 J/K/mol
166.54 K	95.25 ± 0.56 J/K/mol
168.18 K	96.07 ± 0.56 J/K/mol
168.44 K	96.2 ± 0.56 J/K/mol
170.18 K	97.05 ± 0.57 J/K/mol
170.35 K	97.13 ± 0.57 J/K/mol
172.19 K	98.05 ± 0.57 J/K/mol
172.26 K	98.07 ± 0.57 J/K/mol
174.17 K	99.06 ± 0.58 J/K/mol
174.19 K	99.05 ± 0.58 J/K/mol
176.08 K	100.02 ± 0.58 J/K/mol
176.19 K	100.08 ± 0.58 J/K/mol
177.99 K	101.03 ± 0.59 J/K/mol
178.2 K	101.13 ± 0.59 J/K/mol
179.9 K	102.04 ± 0.59 J/K/mol
180.2 K	102.17 ± 0.59 J/K/mol
181.81 K	103.07 ± 0.6 J/K/mol
182.19 K	103.23 ± 0.6 J/K/mol
183.72 K	104.11 ± 0.61 J/K/mol
184.18 K	104.31 ± 0.61 J/K/mol
185.64 K	105.14 ± 0.61 J/K/mol
186.16 K	105.44 ± 0.61 J/K/mol
187.55 K	106.25 ± 0.62 J/K/mol
188.14 K	106.57 ± 0.62 J/K/mol
189.46 K	107.37 ± 0.62 J/K/mol
190.12 K	107.71 ± 0.62 J/K/mol
191.37 K	108.48 ± 0.62 J/K/mol
192.1 K	108.92 ± 0.63 J/K/mol
193.29 K	109.62 ± 0.63 J/K/mol
194.08 K	110.15 ± 0.63 J/K/mol
195.2 K	110.84 ± 0.63 J/K/mol
196.05 K	111.36 ± 0.64 J/K/mol
197.13 K	112.05 ± 0.64 J/K/mol
198.02 K	112.6 ± 0.64 J/K/mol
199.05 K	113.28 ± 0.64 J/K/mol
199.97 K	113.87 ± 0.65 J/K/mol
200.97 K	114.62 ± 0.65 J/K/mol
202 K	115.31 ± 0.66 J/K/mol
202.89 K	116 ± 0.66 J/K/mol
203.92 K	116.79 ± 0.67 J/K/mol
204.81 K	117.51 ± 0.67 J/K/mol
205.74 K	118.31 ± 0.67 J/K/mol
206.72 K	119.13 ± 0.68 J/K/mol
207.56 K	119.91 ± 0.68 J/K/mol
208.63 K	120.93 ± 0.68 J/K/mol
209.36 K	121.66 ± 0.69 J/K/mol
210.55 K	122.71 ± 0.69 J/K/mol
211.17 K	123.38 ± 0.69 J/K/mol
212.46 K	124.68 ± 0.7 J/K/mol
212.97 K	125.27 ± 0.7 J/K/mol
214.38 K	126.63 ± 0.71 J/K/mol
214.76 K	127.11 ± 0.72 J/K/mol
216.3 K	128.63 ± 0.72 J/K/mol
216.54 K	128.94 ± 0.73 J/K/mol
217 K	129.41 ± 0.73 J/K/mol
217.73 K	130.26 ± 0.73 J/K/mol
218.21 K	130.69 ± 0.73 J/K/mol
218.32 K	130.87 ± 0.73 J/K/mol
218.98 K	131.5 ± 0.74 J/K/mol
219.5 K	132.12 ± 0.74 J/K/mol
220.09 K	132.7 ± 0.74 J/K/mol
220.14 K	132.72 ± 0.74 J/K/mol
220.87 K	133.52 ± 0.74 J/K/mol
221.26 K	133.99 ± 0.75 J/K/mol
222.06 K	134.69 ± 0.75 J/K/mol
222.75 K	135.43 ± 0.75 J/K/mol
223.02 K	135.78 ± 0.75 J/K/mol
